From ChEMBL document CHEMBL4190342, “Identifying novel factor XIIa inhibitors with PCA-GA-SVM developed vHTS models” (Eur J Med Chem, 2017)

Experiments:
[1] = biological target: T1, Coagulation factor XII (Homo sapiens, UniProt P00748); assay: Inhibition of human factor 12a using Boc-Gly-Gln-Arg-AMC substrate incubated for 1 hr by fluorescence assay
T1 sequence (P00748 whole entry): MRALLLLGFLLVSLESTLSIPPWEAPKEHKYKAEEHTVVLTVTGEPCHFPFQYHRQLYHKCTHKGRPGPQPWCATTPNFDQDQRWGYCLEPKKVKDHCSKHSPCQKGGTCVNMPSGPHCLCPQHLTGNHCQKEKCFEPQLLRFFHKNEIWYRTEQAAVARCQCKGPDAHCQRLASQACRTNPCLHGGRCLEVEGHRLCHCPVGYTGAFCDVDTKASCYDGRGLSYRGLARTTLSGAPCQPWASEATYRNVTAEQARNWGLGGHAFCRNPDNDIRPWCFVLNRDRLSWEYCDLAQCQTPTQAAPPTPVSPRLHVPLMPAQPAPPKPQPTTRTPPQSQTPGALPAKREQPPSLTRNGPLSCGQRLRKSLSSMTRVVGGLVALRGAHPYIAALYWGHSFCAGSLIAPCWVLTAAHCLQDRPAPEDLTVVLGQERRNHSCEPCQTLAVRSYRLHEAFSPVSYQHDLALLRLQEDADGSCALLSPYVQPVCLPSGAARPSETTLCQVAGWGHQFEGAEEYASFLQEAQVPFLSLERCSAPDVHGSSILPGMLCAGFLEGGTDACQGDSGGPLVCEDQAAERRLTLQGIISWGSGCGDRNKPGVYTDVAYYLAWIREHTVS

[2] = biological target: T1, Coagulation factor XII; assay: Inhibition of human factor 12a using Boc-Gly-Gln-Arg-AMC substrate incubated for 1 hr in presence of 0.01% Tween20 surfactant by fluorescence assay
[3] = biological target: T1, Coagulation factor XII; assay: Inhibition of human factor 12a using Boc-Gly-Gln-Arg-AMC substrate incubated for 1 hr in presence of 0% Tween20 surfactant by fluorescence assay
[4] = biological target: T1, Coagulation factor XII; assay: Inhibition of human factor 12a using Boc-Gly-Gln-Arg-AMC substrate incubated for 1 hr in presence of 0.02% Tween20 surfactant by fluorescence assay

Structure (SMILES)	IC50 [1]	other results
Cc1ccc(/C=C(\C#N)c2nc3ccccc3[nH]2)cc1	> 50 µM	
COc1ccccc1C(=O)n1nnc2ccccc21	7.21 µM	
COc1cc(OC)cc(C(=O)n2nnc3ccccc32)c1	25.4 µM	
N#C/C(=C\c1ccccc1)c1nc2ccccc2[nH]1	> 50 µM	
COC(=O)c1ccc(/C=C(\C#N)c2nc3ccc(C)cc3[nH]2)cc1	> 50 µM	
COc1ccc(/C=C(\C#N)c2nc3ccc(C)cc3[nH]2)cc1	> 50 µM	
COc1cccc(/C=C(\C#N)c2nc3ccccc3[nH]2)c1	> 50 µM	
O=C(c1ccco1)n1nnc2ccccc21	34.1 µM	

Continued, in another order:

IC50 [1]	Structure (SMILES)	other results
0.68 µM	COc1ccccc1C(=O)n1nc(-c2cccnc2)nc1N	IC50 [2]: 2.63 µM; IC50 [3]: 1.85 µM; IC50 [4]: 2.43 µM
> 50 µM	COc1ccc(/C=C(\C#N)c2nc3ccccc3[nH]2)cc1OC	
> 50 µM	Cc1ccc2nc(/C(C#N)=C/c3ccccc3)[nH]c2c1	
31.7 µM	O=C(c1ccc(Cl)cc1)n1nnc2ccccc21	
0.6 µM	O=C(c1ccc(Br)cc1)n1nnc2ccccc21	
